Measurements published in patent EP4467141A1, “PYRAZOLO-QUINOLINES AS SELECTIVE INHIBITORS OF GENOTOXIC STRESS-INDUCED IKK/NF- KB PATHWAYS FOR CANCER THERAPY” (Max-Delbrück-Centrum für Molekulare Medizin in der …, priority 2023, dated 2024).

What was measured:
Assay in all cases: Kinase panel study
Type in all cases: biochemical
Conditions in all cases: read-out: Percentage of inhibition; for inhibition at 1 µM: 1000nM; for inhibition at 10 µM: 10000nM
CHUK (IKK alpha) = molecular target: T1, CHUK (IKK alpha) (Homo sapiens, UniProt O15111)
T1 construct: purchased Thermo Fisher Scientific
T1 sequence (O15111 1-745): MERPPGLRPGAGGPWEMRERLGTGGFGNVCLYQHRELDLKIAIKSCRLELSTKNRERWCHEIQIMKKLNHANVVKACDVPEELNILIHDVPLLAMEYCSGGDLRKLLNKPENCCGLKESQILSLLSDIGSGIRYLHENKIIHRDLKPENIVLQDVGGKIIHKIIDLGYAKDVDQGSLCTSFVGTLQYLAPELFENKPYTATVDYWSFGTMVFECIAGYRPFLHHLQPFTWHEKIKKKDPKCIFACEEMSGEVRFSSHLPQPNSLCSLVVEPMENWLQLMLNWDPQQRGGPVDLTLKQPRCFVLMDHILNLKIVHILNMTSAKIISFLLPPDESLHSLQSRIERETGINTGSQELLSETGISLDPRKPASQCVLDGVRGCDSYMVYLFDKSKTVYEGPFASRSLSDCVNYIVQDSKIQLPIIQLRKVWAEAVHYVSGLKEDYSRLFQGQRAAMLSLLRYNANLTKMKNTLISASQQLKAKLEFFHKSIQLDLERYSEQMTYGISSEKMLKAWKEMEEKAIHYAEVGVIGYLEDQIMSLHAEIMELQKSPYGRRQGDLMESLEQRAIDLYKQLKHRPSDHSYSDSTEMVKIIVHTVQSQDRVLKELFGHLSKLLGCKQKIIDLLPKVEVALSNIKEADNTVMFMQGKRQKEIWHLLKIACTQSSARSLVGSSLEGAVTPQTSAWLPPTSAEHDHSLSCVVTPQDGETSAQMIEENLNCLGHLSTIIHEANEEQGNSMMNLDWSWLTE
Outline: (§1)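 Outsourced panel screen. Format: ZLyte or Adapta, run per the manufacturer's procedures. Read-out: inhibition (%) at a single dose of 10 µM or 1 µM; IC50s also generated.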

ROCK2 = molecular target: T2, ROCK2 (Homo sapiens, UniProt O75116)
T2 construct: purchased Thermo Fisher Scientific
T2 sequence (O75116 whole entry): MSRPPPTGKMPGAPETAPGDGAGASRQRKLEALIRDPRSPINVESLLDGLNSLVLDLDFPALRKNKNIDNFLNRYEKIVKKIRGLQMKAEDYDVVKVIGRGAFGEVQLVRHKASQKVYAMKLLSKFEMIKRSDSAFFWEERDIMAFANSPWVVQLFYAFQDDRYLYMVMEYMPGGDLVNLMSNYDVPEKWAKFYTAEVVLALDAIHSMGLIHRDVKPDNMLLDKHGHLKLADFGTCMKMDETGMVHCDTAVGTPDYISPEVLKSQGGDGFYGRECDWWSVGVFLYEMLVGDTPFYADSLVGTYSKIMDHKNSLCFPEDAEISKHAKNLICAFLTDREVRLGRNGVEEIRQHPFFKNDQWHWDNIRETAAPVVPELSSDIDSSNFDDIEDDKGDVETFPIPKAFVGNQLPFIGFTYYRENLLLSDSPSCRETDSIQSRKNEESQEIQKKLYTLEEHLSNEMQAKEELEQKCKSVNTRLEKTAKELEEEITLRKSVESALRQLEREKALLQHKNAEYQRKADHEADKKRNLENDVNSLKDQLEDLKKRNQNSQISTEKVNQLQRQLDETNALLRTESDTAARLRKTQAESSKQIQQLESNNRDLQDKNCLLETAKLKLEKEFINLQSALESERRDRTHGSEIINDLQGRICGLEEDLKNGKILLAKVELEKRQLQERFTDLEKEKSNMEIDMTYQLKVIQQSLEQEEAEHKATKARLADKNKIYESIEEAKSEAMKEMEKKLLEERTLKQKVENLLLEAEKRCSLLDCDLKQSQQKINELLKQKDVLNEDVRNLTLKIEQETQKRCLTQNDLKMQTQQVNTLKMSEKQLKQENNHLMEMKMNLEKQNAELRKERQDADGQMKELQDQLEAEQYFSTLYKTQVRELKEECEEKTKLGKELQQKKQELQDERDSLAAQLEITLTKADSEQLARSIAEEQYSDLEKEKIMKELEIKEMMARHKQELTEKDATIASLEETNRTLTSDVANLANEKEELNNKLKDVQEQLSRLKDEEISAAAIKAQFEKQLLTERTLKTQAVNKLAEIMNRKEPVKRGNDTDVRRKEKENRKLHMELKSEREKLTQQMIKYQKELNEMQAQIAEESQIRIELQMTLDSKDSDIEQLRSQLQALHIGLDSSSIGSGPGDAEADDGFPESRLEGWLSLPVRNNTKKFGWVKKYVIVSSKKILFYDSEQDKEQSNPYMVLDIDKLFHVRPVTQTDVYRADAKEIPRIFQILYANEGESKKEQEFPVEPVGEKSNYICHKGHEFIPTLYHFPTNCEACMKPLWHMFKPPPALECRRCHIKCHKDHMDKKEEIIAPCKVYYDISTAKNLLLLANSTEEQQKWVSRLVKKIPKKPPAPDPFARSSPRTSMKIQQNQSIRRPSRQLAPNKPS
Outline: as §1

PRKACA (PKA) = molecular target: T3, PRKACA (PKA) (Homo sapiens, UniProt P17612)
T3 construct: purchased Thermo Fisher Scientific
Outline: as §1

MAP4K4 (HGK) = molecular target: T4, MAP4K4 (HGK) (Homo sapiens, UniProt O95819)
T4 construct: purchased Thermo Fisher Scientific
T4 sequence (O95819 whole entry): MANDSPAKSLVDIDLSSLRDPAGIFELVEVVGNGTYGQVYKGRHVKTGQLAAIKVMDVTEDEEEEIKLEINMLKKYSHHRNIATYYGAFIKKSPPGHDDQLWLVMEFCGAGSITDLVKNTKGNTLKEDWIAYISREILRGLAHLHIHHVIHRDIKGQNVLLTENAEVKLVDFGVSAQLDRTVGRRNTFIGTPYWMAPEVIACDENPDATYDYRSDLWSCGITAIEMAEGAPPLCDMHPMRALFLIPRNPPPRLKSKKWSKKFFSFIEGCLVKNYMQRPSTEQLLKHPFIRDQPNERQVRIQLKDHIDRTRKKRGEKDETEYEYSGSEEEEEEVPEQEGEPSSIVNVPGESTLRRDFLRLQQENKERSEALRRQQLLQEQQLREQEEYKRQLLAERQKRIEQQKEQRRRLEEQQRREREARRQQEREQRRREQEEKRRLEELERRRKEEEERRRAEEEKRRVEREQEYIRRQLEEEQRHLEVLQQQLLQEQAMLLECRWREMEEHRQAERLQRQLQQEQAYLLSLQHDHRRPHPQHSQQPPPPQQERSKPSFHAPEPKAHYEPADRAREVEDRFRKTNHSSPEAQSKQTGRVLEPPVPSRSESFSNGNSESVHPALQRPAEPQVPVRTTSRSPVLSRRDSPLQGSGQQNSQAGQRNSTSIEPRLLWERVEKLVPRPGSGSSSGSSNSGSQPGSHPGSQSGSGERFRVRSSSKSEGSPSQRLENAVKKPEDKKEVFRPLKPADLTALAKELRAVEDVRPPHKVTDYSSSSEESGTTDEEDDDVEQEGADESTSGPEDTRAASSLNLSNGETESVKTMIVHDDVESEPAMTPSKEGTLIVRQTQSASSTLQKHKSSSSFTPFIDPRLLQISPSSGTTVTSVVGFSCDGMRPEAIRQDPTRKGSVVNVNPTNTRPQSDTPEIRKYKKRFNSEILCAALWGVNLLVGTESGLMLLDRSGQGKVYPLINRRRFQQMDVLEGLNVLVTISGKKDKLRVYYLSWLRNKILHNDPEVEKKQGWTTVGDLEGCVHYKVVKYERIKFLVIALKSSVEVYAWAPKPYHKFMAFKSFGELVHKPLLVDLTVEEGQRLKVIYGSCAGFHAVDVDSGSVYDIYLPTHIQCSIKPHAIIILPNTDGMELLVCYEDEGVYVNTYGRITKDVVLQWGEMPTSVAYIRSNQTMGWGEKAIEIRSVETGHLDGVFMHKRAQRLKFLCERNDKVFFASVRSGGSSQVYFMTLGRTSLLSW
Outline: as §1

ABL1 T315I = molecular target: T5, ABL1 T315I (Homo sapiens, UniProt P00519, T315I)
T5 construct: purchased Thermo Fisher Scientific
Outline: as §1

EPHB3 = molecular target: T6, EPHB3 (Homo sapiens, UniProt P54753)
T6 construct: purchased Thermo Fisher Scientific
T6 sequence (P54753 34-998): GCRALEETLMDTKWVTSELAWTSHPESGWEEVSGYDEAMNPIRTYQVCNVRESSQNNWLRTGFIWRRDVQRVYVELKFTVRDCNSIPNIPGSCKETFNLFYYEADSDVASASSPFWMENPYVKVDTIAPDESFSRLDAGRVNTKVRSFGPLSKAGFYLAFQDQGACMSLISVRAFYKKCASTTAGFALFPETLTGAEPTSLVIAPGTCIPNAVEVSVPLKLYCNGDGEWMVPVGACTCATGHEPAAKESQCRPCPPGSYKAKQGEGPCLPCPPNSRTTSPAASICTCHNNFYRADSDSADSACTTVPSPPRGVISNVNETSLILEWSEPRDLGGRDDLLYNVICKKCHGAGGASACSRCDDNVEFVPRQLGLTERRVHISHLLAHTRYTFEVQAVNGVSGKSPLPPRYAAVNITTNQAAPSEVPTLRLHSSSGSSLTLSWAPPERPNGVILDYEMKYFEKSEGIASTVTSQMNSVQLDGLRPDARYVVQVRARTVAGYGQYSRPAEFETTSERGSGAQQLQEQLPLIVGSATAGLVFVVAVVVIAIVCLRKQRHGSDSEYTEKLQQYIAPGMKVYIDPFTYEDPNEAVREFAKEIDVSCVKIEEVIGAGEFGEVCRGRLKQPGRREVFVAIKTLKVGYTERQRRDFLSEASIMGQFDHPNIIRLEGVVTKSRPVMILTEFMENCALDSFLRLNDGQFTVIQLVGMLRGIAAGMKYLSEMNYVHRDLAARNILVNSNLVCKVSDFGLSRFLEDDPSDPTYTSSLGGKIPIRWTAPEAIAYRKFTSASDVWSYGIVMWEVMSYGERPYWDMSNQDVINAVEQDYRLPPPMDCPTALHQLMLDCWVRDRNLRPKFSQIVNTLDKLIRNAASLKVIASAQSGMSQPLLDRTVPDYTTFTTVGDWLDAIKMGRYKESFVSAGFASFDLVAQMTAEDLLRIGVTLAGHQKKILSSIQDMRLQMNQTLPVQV
Outline: as §1

CDK6/cyclin D1 = molecular target: T7, CDK6/cyclin D1 (Homo sapiens, UniProt Q00534)
T7 construct: purchased Thermo Fisher Scientific
T7 sequence (Q00534 whole entry): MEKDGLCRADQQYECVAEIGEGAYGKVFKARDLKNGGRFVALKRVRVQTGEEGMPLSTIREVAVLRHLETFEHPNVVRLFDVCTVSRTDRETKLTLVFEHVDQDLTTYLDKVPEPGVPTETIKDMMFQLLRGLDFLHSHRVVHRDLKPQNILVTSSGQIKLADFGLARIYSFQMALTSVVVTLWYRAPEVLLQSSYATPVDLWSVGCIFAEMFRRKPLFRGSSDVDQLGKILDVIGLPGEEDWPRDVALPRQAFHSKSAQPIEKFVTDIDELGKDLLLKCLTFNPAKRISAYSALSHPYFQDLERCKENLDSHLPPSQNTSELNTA
T7 sequence (P24385 whole entry partner): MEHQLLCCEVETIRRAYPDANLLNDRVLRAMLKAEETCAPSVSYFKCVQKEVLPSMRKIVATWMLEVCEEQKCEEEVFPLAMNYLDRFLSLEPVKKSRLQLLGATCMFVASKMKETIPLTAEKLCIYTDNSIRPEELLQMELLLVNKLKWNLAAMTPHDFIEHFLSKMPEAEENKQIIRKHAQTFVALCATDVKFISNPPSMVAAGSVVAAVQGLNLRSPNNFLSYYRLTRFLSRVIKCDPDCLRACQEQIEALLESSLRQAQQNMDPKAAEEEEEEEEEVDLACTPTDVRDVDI
Outline: as §1

PIM3 = molecular target: T8, PIM3 (Homo sapiens, UniProt Q86V86)
T8 construct: purchased Thermo Fisher Scientific
Outline: as §1

Structure (SMILES) | inhibition at 1 µM (CHUK (IKK alpha)) [%] | inhibition at 10 µM (CHUK (IKK alpha)) [%] | inhibition at 1 µM (ROCK2) [%] | inhibition at 10 µM (ROCK2) [%] | inhibition at 1 µM (PRKACA (PKA)) [%] | inhibition at 10 µM (PRKACA (PKA)) [%] | inhibition at 1 µM (MAP4K4 (HGK)) [%] | inhibition at 10 µM (MAP4K4 (HGK)) [%] | inhibition at 1 µM (ABL1 T315I) [%] | inhibition at 10 µM (ABL1 T315I) [%] | inhibition at 1 µM (EPHB3) [%] | inhibition at 10 µM (EPHB3) [%] | inhibition at 1 µM (CDK6/cyclin D1) [%] | inhibition at 10 µM (CDK6/cyclin D1) [%] | inhibition at 1 µM (PIM3) [%] | inhibition at 10 µM (PIM3) [%]
COc1ccc2c(c1OC)c(=O)n1c3ccc(O)cc3c3ccnc2c31 [MW01, 5-Hydroxy-10,11-dimethoxy-9H-benzo[c]indolo[3,2,1-ij][1,5]naphthyridin-9-one] | 19 | 21 | 14 | 18 | 6 | 17 | 64 | 80 | 9 | 34 | 1 | 11 | 1 | -8 | 22 | 42
COc1ccc2cc3c(N)nn(C(=O)c4cccc(N(C)C)c4)c3nc2c1 [MW05, (3-Amino-7-methoxypyrazolo[3,4-b]quinolin-1-yl)-[3-(dimethylamino)phenyl]methanone] | 7 | 18 | 14 | 4 | 12 | -15 | 9 | 11 | 8 | 5 | 6 | 5 | 2 | 0 | 11 | 2
